This note sets out measurements from US5795977A, “Water soluble adenosine kinase inhibitors” (Metabasis Therapeutics, Inc., priority 1996, dated 1998).

Counter-ions that a name gives are not always drawn.

The first assay concerns the target partially purified pig heart adenosine kinase or recombinant human adenosine kinase. Kind of assay: AK inhibition. It is filed as biochemical. To be noted: 0.5 μM [U-14C] adenosine, pH 7.0, 37° C., 20 minutes. The procedure:
Adenosine kinase activity was measured essentially as described by Yamada et al. Biochim. Biophys. Acta 660, 36-43 (1988) with a few minor modifications. Assay mixtures contained 50 mM TRIS-maleate buffer, pH 7.0, 0.1% BSA, 1 mM ATP 1 mM MgCl2, 0.5 μM [U-^14 C] adenosine (400-600 mCi/mmol) and varying duplicate concentrations of inhibitor. […] The amount of ^14 C-AMP was quantified by scintillation counting.
As usually defined, the IC50 is the midpoint of a concentration-inhibition curve. With `OC[C@@H]1O[C@@H](n2cc(I)c3c(NCc4ccccn4)ncnc32)[C@H](O)[C@@H]1O` [Compound 46, 4-N-(2-pyridylmethyl)amino-5-iodo-7-(a-L-lyxofuranosyl)pyrrolo(2,3-d)pyrimidine], the half-maximal inhibitory concentration (IC50) stood at 220 nM. Still for that read-out and setting: under `C[C@H]1O[C@@H](n2cc(-c3ccc(C(=O)N4CCNCC4)cc3)c3c(Nc4ccc(F)cc4)ncnc32)[C@H](O)[C@@H]1O` [Compound 199, 4-N-(4-fluorophenyl)amino-5-[4-(N-piperazinocarbonyl)phenyl]-7-(5-deoxy-1-β-D-ribofuranosyl)pyrrolo(2,3-d]pyrimidine hydrochloride salt] stands 550 nM; under `C[C@H]1O[C@@H](n2cc(-c3ccccc3)c3c(Nc4ccc(C(=N)N)cc4)ncnc32)[C@H](O)[C@@H]1O` [Compound 39, 4-N -(4-amidinophenyl)amino-5-phenyl-7-(5-deoxy-1-β-ribofuranosyl)pyrrolo[2,3-d]pyrimidine], 1 nM. Still for that read-out and setting: the same measure for `CCN(CC)CCNC(=O)c1ccc(-c2cn([C@@H]3O[C@H](C)[C@@H](O)[C@H]3O)c3ncnc(Nc4ccc(F)cc4)c23)cc1` [Compound 200, 4-N-(4-fluorophenyl)amino-5-[4-(2-N,N-diethylaminoethyleneaminocarbonyl)phenyl]-7-(5-deoxy-1-β-D-ribofuranosyl)pyrrolo[2,3-d]pyrimidine hydrochloride]: 200 nM; for `C[C@H]1O[C@@H](n2cc(I)c3c(NCc4nc5ccccc5[nH]4)ncnc32)[C@H](O)[C@@H]1O` [Compound 45, 4-N-(2-benzimidazolylmethyl)amino-5-iodo-7-(5-deoxy-1-β-D-ribofuranosyl) pyrrolo[(2,3-d)]pyrimidine]: 500 nM.

Consider `CC(=O)NS(=O)(=O)c1ccc(Nc2ncnc3c2c(-c2ccccc2)cn3[C@@H]2O[C@H](C)[C@@H](O)[C@H]2O)cc1` [Compound 40, 4-N-[4-(N-acetylaminosulfonyl)phenyl]amino-5-phenyl-7-(5-deoxy-1-β-D-ribofuranosyl)pyrrolo[2,3-d]pyrimidine], for which the IC50 came out at 3000 nM.

On to `C[C@H]1O[C@@H](n2cc(-c3ccc(CN(C)C)cc3)c3c(Nc4ccc(F)cc4)ncnc32)[C@H](O)[C@@H]1O` [Compound 198, 4-N-(4-fluorophenyl)amino-5-[4-(dimethylaminomethyl)phenyl]-7-(5-deoxy-β-D-ribofuranosyl)pyrrolo[2,3-d]pyrimidine], for which the IC50 amounted to 120 nM. Still for that read-out and setting: under `C[C@H]1O[C@@H](n2cc(I)c3c(NCc4cccnc4)ncnc32)[C@H](O)[C@@H]1O` [Compound 44, 4-N-(3-pyridylmethylamino)-5-iodo-7-(5-deoxy-1-β-D-ribofuranosyl)pyrrolo[2,3-d]pyrimidine] stands 120 nM; under `CCN(CC)CCNC(=O)c1ccc(Nc2ncnc3c2c(-c2ccccc2)cn3[C@@H]2O[C@H](C)[C@@H](O)[C@H]2O)cc1` [Compound 211], 0.5 nM; under `C[C@H]1O[C@@H](n2cc(-c3ccc(CCC(=O)O)cc3)c3c(Nc4ccc(F)cc4)ncnc32)[C@H](O)[C@@H]1O` [Compound 204, 4-N-(4-fluorophenyl)amino-5-[4-(2-carboxyethyl)phenyl]-7-(5-deoxy-1-β-D-ribofuranosyl)pyrrolo[2,3-d]pyrimidine], 45 nM.

Consider `C[C@H]1O[C@@H](n2cc(I)c3c(NCc4ccccn4)ncnc32)[C@H](O)[C@@H]1O` [Compound 41, 4-N-(2-pyridylmethylamino)-5-iodo-7-(5-deoxy-1-β-D-ribofuranosyl)pyrrolo[2,3-d]pyrimidine], for which the IC50 is 70 nM.

The subject of the next assay is Rats (carrageenan paw). Kind of assay: Anti-inflammatory activity, carrageenan paw swelling. Conditions: rat, oral gavage, 10 mg/kg, swelling after 3 hours. It is filed as in vivo. The procedure: Carrageenan (Type λ) was suspended in sterile PBS at 1% (w/v), autoclaved for 30 minutes, and stored at room temperature. Rats were pretreated with vehicle or AK inhibitor (10 mg/kg) by oral gavage or i.p. administration and the volume of the left hind paw was measured using a water displacement plethysmometer (Stoelting Co., Wood Dale, Ill.). One hour after oral treatment or 30 minutes after i.p. treatment, the rats were briefly anesthetized, and 0.1 ml of the carrageenan solution was injected subcutaneously into the planar surface of the left hind paw. The ensuing paw swelling was measured by plethysmometry after 3 hours. The paw volume in millileters was […]. Data are presented in Table 2 as the percent inhibition of paw swelling in AK inhibitor treated animals, compared to vehicle treated control animals.
For orientation: The carrageenan paw model is a standard test of acute inflammation.
Regarding `C[C@H]1O[C@@H](n2cc(-c3ccccc3)c3c(Nc4ccc(CCN5CCNCC5)cc4)ncnc32)[C@H](O)[C@@H]1O` [Compound 4, 4-N-[4-(2-(1-piperazino)ethyl)phenyl]amino-5-phenyl-7-(5-deoxy-β-D-ribofuranosyl)pyrrolo[2,3-d]pyrimidine], the “Carrageenan Paw (% inhibition) po” value is 2.5%.
